We go through 3 compounds from US20080299598A1, “Detector Comprising a Membrane Perturbation - Detecting Polymer and Functional Membrane Fragments” (priority 2004, published 2008).

Data set [1] concerns plasma membrane fragments obtained from PC12 cells. Kind of data set: Chromatic response (% CR) of the polydiacetylene construct made with plasma membrane fragments from PC12 cells (detects membrane-permeating drugs). The class given is in vitro ADME. Conditions: analyte up to 11 μM; 25 mM Tris base pH 8; FIG. 2. The procedure: FIG. 2 illustrates the detection of a drug molecule capable of permeating cellular membrane using the construct of the invention (comprising plasma membrane fragments obtained from PC12 cells and polydiacetylene).
(§1) 20 μl of 10,12-tricosadionic acid taken from a stock solution in 60 mM chloroform/ethanol (1:1) are dried in vacuo up to constant weight. The dried material is then resuspended in 1.950 ml deionized water and subjected to probe sonication at 70° C. for 3 minutes. The solution thus obtained is then cooled for 15 minutes, and 50 μl of plasma membrane from PC12 cells (prepared as described hereinabove) is added thereto. The vesicle suspension obtained thereby is then subject to another round of sonication for 10 seconds, left to cool to room temperature and than stored at 4° C. overnight.
Aqueous stock solutions containing 5.2 mg/ml propranolol and 1.5 mg/ml amoxicillin were prepared. […]
FIG. 2 depicts the chromatic response factor calculated for various Propranol- or Amoxicillin-containing samples on the basis of the UV-vis spectra measured, versus the concentration of the analyte (that is, either Propranol or Amoxicillin) in said samples. […]

In a further data set the test system is muscarinic receptor. The data set is described as follows: Chromatic response (% CR) of the polydiacetylene construct made with crude membrane fragments from PC12 cells overexpressing the muscarinic receptor. Type of data set: binding. As to conditions: atropine up to 20 μM; 25 mM Tris base pH 8; compared with construct from regular PC12 crude membrane; FIG. 1. The procedure: PC12 cells overexpressing the muscarinic receptors were prepared using conventional transfection techniques, as described, for example, by Sadot et al. [Israel Journal of neurochemistry (1996 February), 66(2), 877-80.]
as §1, with “crude” for “plasma”, “hereinabove and containing 10 mg/ml protein)” for “hereinabove)”
An aqueous stock solution containing Atropine at a concentration of 0.55 mg/ml was prepared. […]
The UV-vis spectroscopic measurements were carried out three times for each of the samples prepared, using a Jena Analytical Elisa-reader using 96 well microplates. The blue-to-red chromatic transitions were quantified using the chromatic response factor, as defined below:
where Ablue and Ared are the absorbance measured at about 640 nm and about 500 nm, respectively. […]

`CC1(C)S[C@@H]2[C@H](NC(=O)[C@H](N)c3ccc(O)cc3)C(=O)N2[C@H]1C(=O)O` [Amoxicillin]: in data set [1], the “chromatic change (% CR)” value is on record as “very low % CR”. As for `CN1[C@@H]2CC[C@H]1C[C@@H](OC(=O)C(CO)c1ccccc1)C2` (stereo partly drawn) [atropine, Atropine], the “chromatic transition (% CR)” value in the data set on muscarinic receptor is recorded as “high % CR”.

`CC(C)NCC(O)COc1cccc2ccccc12` (stereo not drawn) [propranolol]: in data set [1], the “chromatic change (% CR)” value is listed as “high % CR”.
